The record followed here is patent US4889800A (priority 1987, dated 1989).

Where “and” joins values, the source holds several entries; their conditions need not be identical. Equal entries are not always repeated. Entries after “also recorded” stand apart in the source; their conditions may differ. Where no end group is shown, it is not given here.

The test system of this assay is guinea pigs immunized with mycobacterial cell sonicates. The note with it: guinea pig, in vivo.

As to “CAKVNIKPLQDKIC (cysteine pairing not given here) [Polypeptide (diCys Terminated), residues 1-12 of the BCG-a protein with Cys at both termini]”, the “DCH Reaction To 250 Micrograms Of Polypeptide (positive DCH reactions/total trials)” value was 7/7 and 4/4 and 0/4 and 0/3 and 2/4 and 5/5 and 0/5; the “DCH reaction (in words)” value is listed as “most pronounced DCH reactions; also recorded: developed a DCH reaction”; the “delayed cutaneous hypersensitivity reaction (in words)” value is “more pronounced delayed cutaneous hypersensitivity reaction”.
